Measured values reported in patent EP3840748B1, “SUBSTITUTED IMIDAZOLES FOR THE INHIBITION OF TGF-BETA AND METHODS OF TREATMENT” (Clavius Pharmaceuticals, LLC, priority 2018, dated 2020).

What was measured:
[1] = target: T1, TGFBR1 (ALK5) (Homo sapiens, UniProt P36897); experiment: LanthaScreen Eu Kinase Binding Assay TGFBR1 (ALK5) (ThermoFisher SelectScreen); conditions: ALK5 5 nM, Tracer #178 5 nM, Eu-anti-GST antibody 2 nM, 1 hour at room temperature, 1% DMSO; read-out: TβRI (ALK5) Binding IC50
T1 sequence (P36897 34-503): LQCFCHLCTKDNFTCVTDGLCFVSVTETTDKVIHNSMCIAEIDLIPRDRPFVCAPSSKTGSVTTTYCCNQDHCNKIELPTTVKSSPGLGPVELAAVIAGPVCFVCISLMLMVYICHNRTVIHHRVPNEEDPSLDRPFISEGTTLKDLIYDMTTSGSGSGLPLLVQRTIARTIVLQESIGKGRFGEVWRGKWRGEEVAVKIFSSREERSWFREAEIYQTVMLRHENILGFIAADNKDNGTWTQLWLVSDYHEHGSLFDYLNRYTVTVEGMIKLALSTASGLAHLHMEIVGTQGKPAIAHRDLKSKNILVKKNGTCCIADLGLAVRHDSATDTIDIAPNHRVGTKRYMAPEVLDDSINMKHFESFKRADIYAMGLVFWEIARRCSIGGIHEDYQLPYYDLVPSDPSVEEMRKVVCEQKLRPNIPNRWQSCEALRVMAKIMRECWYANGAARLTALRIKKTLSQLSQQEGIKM
Text: (§1) Table 2, below, describes the results of assays carried out on some compounds provided by the present disclosure. Exemplified compounds are confirmed to inhibit ALK5 activity in enzyme and cellular assays in the following assay systems conducted by ThermoFisher in Madison, WI according to their commercially available protocols.
ThermoFisher SelectScreen™ Biochemical Kinase Profiling Service, LanthaScreen™Eu Kinase Binding Assay TGFBR1 (ALK5)
Exemplified compounds are screened in 1% DMSO (final concentration) by 3-fold serial dilutions from 10,000 nM to 0.316 nM or at single concentrations of 10,000, 1000 and 100 nM according to the following protocol. To low volume, white 384-well plates (Greiner Cat#784207) add 160 nL 100x compound in 100% DMSO, 3.84 uL kinase buffer (50 mM HEPES, pH 7.5, 0.01% BRIJ-35, 10 mM MgCl2, 1 mM EGTA), 8 uL 2x kinase/antibody mixture in kinase buffer (final ALK5 concentration of 5 nM; final Eu-anti-GST antibody concentration of 2 nM), 4 uL 4x Tracer #178 in kinase buffer (final concentration of 5 nM). Gently shake the plates for 30 seconds and incubate at room temperature for 1 hour before reading fluorescence on a plate reader. Percent inhibition is determined compared to DMSO only control (maximal ALK5 tracer binding) and sigmoidal dose response curve fit yielded IC50 values as indicated in Table 2.

[2] = tested on: TGF-beta 1 stimulated SBE-bla HEK 293T; experiment: GeneBLAzer beta-lactamase (bla) reporter, TGF-beta 1 stimulated SBE-bla HEK 293T cell-based assay (ThermoFisher SelectScreen); conditions: Homo sapiens; SBE-bla HEK 293T cells; 30 minutes pre-incubation with inhibitor; TGF-beta 1 0.03 nM, 5 hours; inhibitor 10,000nM to 0.316nM; read-out: Cells (SBE_HEK293T) IC50
Text: as §1
ThermoFisher SelectScreen™ Cell-based Pathway Profiling Service GeneBLAzer Beta-lactamase (bla) Reporter Technology - TGF-beta 1 stimulated SBE-bla HEK 293T Cell-based Assay
SBE-bla HEK 293T cells are thawed and re-suspended in Assay Media (OPTI-MEM, 0.5% dialyzed FBS, 0.1 mM NEAA, 1 mM Sodium Pyruvate, 100 U/mL/100 µg/mL Pen/Strep) to a concentration of 625,000 cells/mL. 32 µL of cell suspension (20,000 cells) is added to each well of a 384-well Poly-D-Lysine assay plate. Cells in Assay Media are incubated for 16-24 hours in the plate at 37°C/5% CO2 in a humidified incubator. 4 µL of a 10X serial dilution of ALK5 inhibitors (10x = 100,000-3.16 nM) is added to appropriate wells of the plate and pre-incubated at 37°C/5% CO2 in a humidified incubator with cells for 30 minutes. Final concentration of inhibitor ranged from 10,000nM to 0.316nM. 4 µL of 10X TGF-beta 1 (final concentration of 0.03 nM) is added to wells containing the inhibitors. The plate is incubated for 5 hours at 37°C/5% CO2 in a humidified incubator. 8 µL of 1 µM Substrate Loading Solution is added to each well and the plate is incubated for 2 hours at room temperature before being read on a fluorescence plate reader. Percent inhibition is determined compared to DMSO only control (maximal TGF-beta 1 stimulation) and sigmoidal dose response curve fit yielded IC50 values as indicated in Table 2. TABLE 2: Biological activity assay results

IC50 [1] [nM]	SMILES	IC50 [2] [nM]
3.3	NC(=O)c1cnc2ccc(-c3c(-c4ccn(C5CC5)n4)nc4n3CCC4)cn12 [Compound 8, 5-{3-(1-Cyclopropyl-1H-pyrazol-3-yl)-1,4-diazabicyclo[3.3.0]octa-2,4-dien-2-yl}-1,3a-diaza-3-indenecarboxamide]	84
2.6	Oc1ncnc2ccc(-c3c(-c4ccn(C5CC5)n4)nc4n3CCC4)cc12 [Compound 16, 6-{3-(1-Cyclopropyl-1H-pyrazol-3-yl)-1,4-diazabicyclo[3.3.0]octa-2,4-dien-2-yl}-3H-quinazolin-4-one]	117
6.7	Cn1cnc2ccc(-c3c(-c4ccn(C5CC5)n4)nc4n3CCC4)cc2c1=O [Compound 18, 6-{3-(1-Cyclopropyl-1H-pyrazol-3-yl)-1,4-diazabicyclo[3.3.0]octa-2,4-dien-2-yl}-3-methyl-3H-quinazolin-4-one]	69
129	CS(=O)(=O)c1ccc(-c2cc(-c3c(-c4ccn(C5CC5)n4)nc4n3CCC4)ccn2)cc1 [Compound 86, 2-(1-Cyclopropyl-1H-pyrazol-3-yl)-3-(2-(4-(methylsulfonyl)phenyl)pyridin-4-yl)-6,7-dihydro-5H-pyrrolo[1,2-a]imidazole]	1400
55	O=C(NC1CCOCC1)c1ccc(-c2cc(-c3c(-c4ccn(C5CC5)n4)nc4n3CCC4)ccn2)cc1 [Compound 88, 4-(4-(2-(1-Cyclopropyl-1H-pyrazol-3-yl)-6,7-dihydro-5H-pyrrolo[1,2-a]imidazol-3-yl)pyridin-2-yl)-N-(tetrahydro-2H-pyran-4-yl)benzamide]	988
11	Oc1ncnc2ccc(-c3c(-c4ccn(C5CC5)n4)nc4n3CCC4)cc12 [Compound 92, 6-(2-(1-Cyclopropyl-1H-pyrazol-3-yl)-6,7-dihydro-5H-pyrrolo[1,2-a]imidazol-3-yl)quinazolin-4-ol]	57
244	O=C(c1ccc(-c2cc(-c3c(-c4ccn(C5CC5)n4)nc4n3CCC4)ccn2)cc1)N1CCOCC1 [Compound 93, (4-(4-(2-(1-Cyclopropyl-1H-pyrazol-3-yl)-6,7-dihydro-5H-pyrrolo[1,2-a]imidazol-3-yl)pyridin-2-yl)phenyl)(morpholino)methanone]	
27	Cn1cnc2ccc(-c3c(-c4ccn(C5CCC5)n4)nc4n3CCC4)cc2c1=O [Compound 94, 6-(2-(1-Cyclobutyl-1H-pyrazol-3-yl)-6,7-dihydro-5H-pyrrolo[1,2-a]imidazol-3-yl)-3-methylquinazolin-4(3H)-one]	4080
8.9	NC(=O)c1ncnc2ccc(-c3c(-c4ccn(C5CC5)n4)nc4n3CCC4)cc12 [Compound 95, 6-(2-(1-Cyclopropyl-1H-pyrazol-3-yl)-6,7-dihydro-5H-pyrrolo[1,2-a]imidazol-3-yl)quinazoline-4-carboxamide]	151

The remaining lines, values behind:

SMILES	IC50 [1] [nM]	IC50 [2] [nM]
CC(C)n1ccc(-c2nc3n(c2-c2ccc4ncc(C(N)=O)n4c2)CCC3)n1 [Compound 7, 5-{3-(1-Isopropyl-1H-pyrazol-3-yl)-1,4-diazabicyclo[3.3.0]octa-2,4-dien-2-yl}-1,3a-diaza-3-indenecarboxamide]	5.5	248
Cn1cnc2ccc(-c3c(-c4ccn(C5CC5)n4)nc4n3CCN4)cc2c1=O [Compound 22, 6-{3-(1-Cyclopropyl-1H-pyrazol-3-yl)-1,4,6-triazabicyclo[3.3.0]octa-2,4-dien-2-yl}-3-methyl-3H-quinazolin-4-one]	7.2	27.4
CC(C)n1ccc(-c2nc3occn3c2-c2ccc3nc[nH]c(=O)c3c2)n1 [Compound 23, 6-{7-(1-Isopropyl-1H-pyrazol-3-yl)-4-oxa-1,6-diazabicyclo[3.3.0]octa-2,5,7-trien-8-yl}-3H-quinazolin-4-one]	5.2	239
O=c1[nH]cnc2ccc(-c3c(-c4ccn(C5CC5)n4)nc4occn34)cc12 [Compound 24, 6-{7-(1-Cyclopropyl-1H-pyrazol-3-yl)-4-oxa-1,6-diazabicyclo[3.3.0]octa-2,5,7-trien-8-yl}-3H-quinazolin-4-one]	1.8	37
CC(C)n1ccc(-c2nc3occn3c2-c2ccc3ncn(C)c(=O)c3c2)n1 [Compound 25, 6-{7-(1-Isopropyl-1H-pyrazol-3-yl)-4-oxa-1,6-diazabicyclo[3.3.0]octa-2,5,7-trien-8-yl}-3-methyl-3H-quinazolin-4-one]	7.2	238
Cn1cnc2ccc(-c3c(-c4ccn(C5CC5)n4)nc4occn34)cc2c1=O [Compound 26, 6-{7-(1-Cyclopropyl-1H-pyrazol-3-yl)-4-oxa-1,6-diazabicyclo[3.3.0]octa-2,5,7-trien-8-yl}-3-methyl-3H-quinazolin-4-one]	3.1	33.8
O=c1c2cc(-c3c(-c4ccn(C5CC5)n4)nc4n3CCC4)ccc2ncn1CCN1CCOCC1 [Compound 28, 6-{3-(1-Cyclopropyl-1H-pyrazol-3-yl)-1,4-diazabicyclo[3.3.0]octa-2,4-dien-2-yl}-3-(2-morpholinoethyl)-3H-quinazolin-4-one]	107	
O=c1[nH]cnc2ccc(-c3c(-c4ccn(CC(F)F)n4)nc4n3CCC4)cc12 [Compound 49, 6-{3-[1-(2,2-Difluoroethyl)-1H-pyrazol-3-yl]-1,4-diazabicyclo[3.3.0]octa-2,4-dien-2-yl}-3H-quinazolin-4-one]	52	2400
Cn1cnc2ccc(-c3c(-c4ccn(CC(F)F)n4)nc4n3CCC4)cc2c1=O [Compound 50, 6-{3-[1-(2,2-Difluoroethyl)-1H-pyrazol-3-yl]-1,4-diazabicyclo[3.3.0]octa-2,4-dien-2-yl}-3-methyl-3H-quinazolin-4-one]	90	253
CC(C)(O)c1cnc2ccc(-c3c(-c4ccn(C5CC5)n4)nc4n3CCC4)cn12 [Compound 75, 2-(6-(2-(1-Cyclopropyl-1H-pyrazol-3-yl)-6,7-dihydro-5H-pyrrolo[1,2-a]imidazol-3-yl)imidazo[1,2-a]pyridin-3-yl)propan-2-ol]	66	930
Cn1cnc2ccc(-c3c(-c4ccn(C5CC5)n4)nc4sccn34)cc2c1=O [Compound 89, 6-{7-(1-Cyclopropyl-1H-pyrazol-3-yl)-4-thia-1,6-diazabicyclo[3.3.0]octa-2,5,7-trien-8-yl}-3-methyl-3H-quinazolin-4-one]	2.5	27
O=c1[nH]cnc2ccc(-c3c(-c4ccn(C5CC5)n4)nc4sccn34)cc12 [Compound 90, 6-{7-(1-Cyclopropyl-1H-pyrazol-3-yl)-4-thia-1,6-diazabicyclo[3.3.0]octa-2,5,7-trien-8-yl}-3H-quinazolin-4-one]	2.5	35.6
CC(C)n1ccc(-c2nc3sccn3c2-c2ccc3ncn(C)c(=O)c3c2)n1 [Compound 91, 6-(6-(1-Isopropyl-1H-pyrazol-3-yl)imidazo [2,1-b]thiazol-5-yl)-3-methylquinazolin-4(3H)-one]	22	1100
